# Results taken from US20140088034A1, “NITRIC OXIDE/cGMP PATHWAY INHIBITION OF VLA-4 RELATED CELL ADHESION” (STC.UNM, priority 2011, published 2014).
# Where two headings read alike, the source gives them in different places.
# Legend:
# [1] = target: T1, VLA-4 (Homo sapiens, UniProt P05556+P13612); conditions: cited from earlier work
# [2] = target: T1, VLA-4; test: LDV-FITC equilibrium binding to VLA-4 (Kd and calculated receptor occupancy)
# Excerpt: Previously, we described and characterized in detail a model ligand an LDV-FITC containing small molecule ([14, 42-44], and references therein) for the detection of VLA-4 conformational regulation. This VLA-4 specific fluorescent probe was based on a highly specific α4β1-integrin inhibitor BIO1211, which contains the Leu-Asp-Val (LDV) ligand binding motif from the alternatively spliced connecting segment-1 (CS-1) peptide of cellular fibronectin [17, 45]. We established that integrin affinity changes, detected using this probe, vary in parallel with the natural VLA-4 ligand, human VCAM-1 [46]. For real-time detection of rapid integrin conformational changes, cells were treated with LDV-FITC (FIG. 2, first arrow), which was added after establishing a baseline for unstained cells, indicated on FIG. 2A as “autofluorescence”. Next, data were acquired for 2-3 minutes, and cells were activated with fMLFF (high affinity FPR ligand), CXCL12/SDF-1 (CXCR4 ligand), or CXCL8/IL-8 (CXCR2 ligand), for FPR, CXCR4, CXCR2 transfected cells, respectively (FIGS. 2A, B, and C). […] The change in occupancy was detected as a rapid increase in the mean channel fluorescence (MCF). This signal increase was sustained for the case of a non-desensitizing mutant of FRP (FIG. 2A), and reversible for the wild-type receptors (CXCR4, and CXCR2, FIG. 2B,C). Next, cells were treated with the nitric oxide donor, or vehicle (control). Acquisition was re-established, and data were acquired continuously for up to 720-840 s. […] In the absence of receptor desensitization, the effect of nitric oxide was more evident in cells transfected with a non-desensitizing mutant of FPR (vehicle, FIG. 2A). However, the effect of the nitric oxide donor was statistically significant for both wild-type GPCRs. […] To emphasize statistically the difference between control and experimental samples, standard errors of mean are indicated using error bars for every experimental point in FIG. 2B, 2C, 2D, 2E.
# Kinetic analysis of the binding and dissociation of the LDV-FITC probe was described previously. […]
# [3] = target: T1, VLA-4; test: Kinetic dissociation rate (koff) analysis of LDV-FITC probe on U937 cells with non-desensitizing FPR mutant; type: cell-based; conditions: U937 FPR ΔST, LDV-FITC 25 nM, LDV block 2 μM
# Experimental: The experiment involved sequential addition of BAY 41-2272 (100 μM, guanylyl cyclase activator) or vehicle (control) at the 0 time point, and the fluorescent LDV-FITC probe (4 nM), and CXCL8/IL-8 (20 nM) (arrows). Excess unlabelled competitor LDV (1 μM) added at the end of the experiment to determine the non-specific binding of the probe. This experiment is analogous to the one shown in panel B. One representative experiment of two experiments is shown. Curves are means of two independent determinations calculated on a point-by-point basis (n=2). […] D, Kinetic analysis of binding and dissociation of LDV-FITC probe on U937 cells stably transfected with the non-desensitizing mutant of FPR. Cells were sequentially treated with the LDV-FITC probe (25 nM, near saturation), the Gαi-coupled receptor ligand (fMLFF, 100 nM), BAY 41-2272 (guanylyl cyclase activator, 50 μM) (arrows). At time points indicated by arrows, cells were treated with excess unlabeled LDV containing small molecule (2 μM), and the dissociation of the fluorescent molecule was followed. Dissociation rate constants (koff) were obtained by fitting dissociation curves to a single exponential decay equation (as described in the text). Experiments shown in the different panels were performed using different instruments, and therefore MCF values are not identical. E, Dissociation rate values, obtained in experiments analogous to panel B, summarized as a bar graph showing mean and SEM (n=4). Colors of the dissociation curves in panel D and bars on panel E are matching. The difference between koffs for “resting” and “fMLFF activated”, and between “fMLFF activated” and “fMLFF activated and treated with BAY 41-2272” is statistically significant (P=0.0006<0.05) as calculated by one-way analysis of variance (ANOVA) using GraphPad Prism software. […]
# Next, the regions of the ligand-binding curves corresponding to the dissociation of the LDV-FITC probe were fitted to a single exponential decay equation. […] The affinity state induced by guanylyl cyclase activator was quantitatively similar to the resting state before activation. […]
# [4] = 4 nM probe, calculated based on the one site binding equation
# T1 sequence (P13612 34-1032): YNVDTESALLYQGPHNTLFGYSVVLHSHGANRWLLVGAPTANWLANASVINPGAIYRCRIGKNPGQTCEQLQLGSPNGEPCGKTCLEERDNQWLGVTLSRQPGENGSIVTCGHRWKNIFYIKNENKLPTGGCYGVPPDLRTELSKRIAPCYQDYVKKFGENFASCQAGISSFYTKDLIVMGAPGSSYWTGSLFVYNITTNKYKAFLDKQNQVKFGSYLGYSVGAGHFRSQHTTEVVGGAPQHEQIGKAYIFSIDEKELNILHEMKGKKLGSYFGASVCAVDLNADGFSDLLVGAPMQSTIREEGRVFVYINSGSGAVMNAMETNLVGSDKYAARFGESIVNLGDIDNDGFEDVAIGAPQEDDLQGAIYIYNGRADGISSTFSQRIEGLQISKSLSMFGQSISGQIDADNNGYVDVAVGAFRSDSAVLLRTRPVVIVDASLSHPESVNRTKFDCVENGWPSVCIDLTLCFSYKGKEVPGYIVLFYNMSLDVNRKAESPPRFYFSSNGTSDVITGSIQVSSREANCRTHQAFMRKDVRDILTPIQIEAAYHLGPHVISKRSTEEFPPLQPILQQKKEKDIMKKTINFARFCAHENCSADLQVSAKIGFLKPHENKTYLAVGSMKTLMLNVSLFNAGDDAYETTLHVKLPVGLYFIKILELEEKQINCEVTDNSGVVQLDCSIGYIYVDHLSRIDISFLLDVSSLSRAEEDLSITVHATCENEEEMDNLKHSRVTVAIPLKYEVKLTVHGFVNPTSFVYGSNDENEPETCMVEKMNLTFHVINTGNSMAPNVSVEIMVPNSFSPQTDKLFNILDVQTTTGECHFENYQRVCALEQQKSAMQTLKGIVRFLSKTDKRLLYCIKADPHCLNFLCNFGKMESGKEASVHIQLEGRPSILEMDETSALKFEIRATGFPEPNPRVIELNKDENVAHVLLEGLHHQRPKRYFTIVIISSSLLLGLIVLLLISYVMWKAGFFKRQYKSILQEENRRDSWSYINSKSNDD
# T1 sequence (P05556 21-798): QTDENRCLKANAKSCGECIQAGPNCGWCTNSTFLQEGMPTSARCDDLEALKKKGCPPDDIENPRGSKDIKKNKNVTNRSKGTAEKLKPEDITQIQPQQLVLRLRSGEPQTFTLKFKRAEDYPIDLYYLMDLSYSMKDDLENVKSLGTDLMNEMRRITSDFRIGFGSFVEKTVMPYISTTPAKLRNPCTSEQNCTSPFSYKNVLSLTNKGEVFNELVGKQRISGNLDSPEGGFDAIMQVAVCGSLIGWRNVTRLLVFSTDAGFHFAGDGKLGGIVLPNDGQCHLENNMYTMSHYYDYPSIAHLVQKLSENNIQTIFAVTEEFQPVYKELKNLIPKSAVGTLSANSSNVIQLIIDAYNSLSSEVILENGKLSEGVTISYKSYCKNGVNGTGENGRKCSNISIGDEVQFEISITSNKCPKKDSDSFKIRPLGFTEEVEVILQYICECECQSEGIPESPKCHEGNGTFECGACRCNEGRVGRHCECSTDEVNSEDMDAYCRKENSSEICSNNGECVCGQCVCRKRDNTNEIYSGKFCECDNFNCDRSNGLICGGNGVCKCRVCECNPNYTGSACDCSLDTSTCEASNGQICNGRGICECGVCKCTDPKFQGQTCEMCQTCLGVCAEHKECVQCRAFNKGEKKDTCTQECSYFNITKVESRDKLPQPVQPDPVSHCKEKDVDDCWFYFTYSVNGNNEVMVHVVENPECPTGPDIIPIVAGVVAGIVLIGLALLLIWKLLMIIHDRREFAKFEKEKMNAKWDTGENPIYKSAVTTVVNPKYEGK
substance,measurement,setting,value
4-((N′-2-methylphenyl)ureido)-phenylacetyl-L-leucyl-L-aspartyl-L-valyl-L-prolyl-L-alanyl-L-alanyl-L-lysine-FITC [LDV-FITC],Kd,"[1]; physiologically activated VLA-4, high affinity state, read-out: Kd for physiologically activated VLA-4 (high affinity state)",1 to 2 nM
same,Kd,"[1]; resting VLA-4, low affinity state, read-out: Kd for binding to resting VLA-4 (low affinity state)",~12 nM
same,"receptor occupancy, high affinity state",[2]; [4],70-80%
same,"receptor occupancy, low affinity state",[2]; [4],~25%
same,sites occupied before activation,"[2]; 25 nM probe, low affinity state",~70%
same,"dissociation rate constant koff of LDV-FITC, resting cells",[3]; at rest,~0.04 ± 0.001 s⁻¹
same,dissociation rate constant koff of LDV-FITC after cell activation by fMLFF,[3]; fMLFF 100 nM,~0.018 ± 0.0001 s⁻¹
